Measured values from US20260209201A1, “TRISULFIDE COMPOUND AND CLATHRATE THEREOF” (Kyowa Pharma Chemical Co., Ltd., priority 2022, published 2026).

Experiment: Thermal stability test (Test Example 1): heating at 100° C. for 5 hours, residual rate by HPLC
Type: physicochemical
Details: heated at 100° C.; for residual rate: amount before heating set at 100%
Method: The thermal stability of (R)-α-lipoic acid, (R)-lipoic acid trisulfide, and compound (12-1) was evaluated as follows. Each compound was placed in a round-bottom flask and heated at 100° C. for 5 hours. Every hour, a sample was taken from the flask, dissolved in a methylene chloride/methanol mixture (1:1), and subjected to HPLC. The residual rate over time was calculated from the area values of each component.
In FIG. 1, the residual rate on the vertical axis was calculated from the degree of decomposition over time for each sample, with the amount before heating set at 100%. […] In addition, (R)-α-lipoic acid and (R)-lipoic acid trisulfide melted immediately after the start of heating, and insoluble by-products were formed. […] This is presumed to be due to the high melting point of compound (12-1) and suppression of intermolecular polymerization. From the above, it was confirmed that the compound or salt represented by Formula (1) has higher thermal stability than (R)-α-lipoic acid and (R)-lipoic acid trisulfide.

residual rate (after 5 hours) | residual rate (at 1 hour) | decomposition (at 2 hours) | SMILES
≥ 95% |  |  | O=C(CCCC[C@@H]1CCSSS1)N1CCN(C(=O)CCCC[C@@H]2CCSSS2)CC1 [Compound (12-1)]
about 50% | below 60% |  | O=C(O)CCCC[C@@H]1CCSS1 [(R)-α-lipoic acid]
about 70% |  | no decomposition | O=C(O)CCCC[C@@H]1CCSSS1 [(R)-lipoic acid trisulfide]
